What was measured:
[1] = molecular target: T1, recombinant soluble tissue factor and recombinant human factor VIIa (Homo sapiens, UniProt P08709); test: TF-VIIa Assay; assay type: biochemical; conditions: chromogenic substrate, 60 min at room temperature, OD 405 nm
T1 construct: purchased American Diagnostica, Greenwich Conn; (factor VIIa); host or cells: soluble TF made in house in E. coli
Experimental: In this assay 100 nM recombinant soluble tissue factor and 2 nM recombinant human factor VIIa are added to a 96-well assay plate containing 0.4 mM of the substrate, N-Methylsulfonyl-D-phe-gly-arg-p-nitroaniline and either inhibitor or buffer (5 mM CaCl2,50 mM Tris-HCl, pH 8.0, 100 mM NaCl, 0.1% BSA). The reaction, in a final volume of 100 ul is measured immediately at 405 nm to determine background absorbance. The plate is incubated at room temperature for 60 min, at which time the rate of hydrolysis of the substrate is measured by monitoring the reaction at 405 nm for the release of p-nitroaniline. Percent inhibition of TF-VIIa activity is calculated from OD405 nm value from the experimental and control sample.
Recombinant soluble TF, consisting of amino acids 1-219 of the mature protein sequence was expressed in E. coli and purified using a Mono Q Sepharose FPLC. Recombinant human VIIa was purchased from American Diagnostica, Greenwich Conn. and chromogenic substrate N-Methylsulfonyl-D-phe-gly-arg-p-nitroaniline was prepared by American Peptide Company, Inc., Sunnyvale, Calif.

human factor Xa = molecular target: T2, human factor Xa (Homo sapiens, UniProt P00742); test: Xa Assay; assay type: biochemical; conditions: percent inhibition of Xa activity; test concentration not given; 60 min
T2 construct: purchased Enzyme Research Laboratories, South Bend Ind
T2 sequence (P00742 235-488 limits assumed): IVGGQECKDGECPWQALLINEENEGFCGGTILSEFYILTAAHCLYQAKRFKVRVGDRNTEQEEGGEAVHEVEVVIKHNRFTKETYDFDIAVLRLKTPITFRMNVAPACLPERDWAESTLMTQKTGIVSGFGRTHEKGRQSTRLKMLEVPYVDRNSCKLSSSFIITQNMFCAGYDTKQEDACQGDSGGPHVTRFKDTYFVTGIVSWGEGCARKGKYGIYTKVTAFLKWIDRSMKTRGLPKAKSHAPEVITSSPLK
T2 sequence (P00742 41-179 limits assumed): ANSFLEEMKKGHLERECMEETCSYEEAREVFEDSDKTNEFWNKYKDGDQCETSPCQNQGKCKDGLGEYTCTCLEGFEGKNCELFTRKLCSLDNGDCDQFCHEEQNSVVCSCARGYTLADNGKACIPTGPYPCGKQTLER

T1 sequence (P08709 213-466 limits assumed): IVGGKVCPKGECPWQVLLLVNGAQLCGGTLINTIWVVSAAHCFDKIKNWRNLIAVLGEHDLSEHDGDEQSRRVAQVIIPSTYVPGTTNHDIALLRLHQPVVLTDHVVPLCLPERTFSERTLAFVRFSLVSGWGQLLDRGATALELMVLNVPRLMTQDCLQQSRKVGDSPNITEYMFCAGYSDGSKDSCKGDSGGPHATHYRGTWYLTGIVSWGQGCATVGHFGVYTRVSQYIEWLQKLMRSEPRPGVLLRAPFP
T1 sequence (P08709 61-212 limits assumed): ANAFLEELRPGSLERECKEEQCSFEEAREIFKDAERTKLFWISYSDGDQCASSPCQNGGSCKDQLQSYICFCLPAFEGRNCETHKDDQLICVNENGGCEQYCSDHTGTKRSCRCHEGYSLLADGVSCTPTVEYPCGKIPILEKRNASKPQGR
T1 sequence (P13726 33-251 partner limits assumed): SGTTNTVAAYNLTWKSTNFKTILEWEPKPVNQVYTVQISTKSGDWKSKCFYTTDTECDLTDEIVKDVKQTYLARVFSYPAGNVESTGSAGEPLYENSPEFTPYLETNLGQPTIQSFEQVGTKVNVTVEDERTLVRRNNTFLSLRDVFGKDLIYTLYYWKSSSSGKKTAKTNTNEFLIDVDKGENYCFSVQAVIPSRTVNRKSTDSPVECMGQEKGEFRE

## N=C(N)c1ccc(CNC(=O)CC2=C(c3ccccc3)C(=O)C=C(NCCc3ccccc3)C2=O)cc1 [Example 2]
[1]
  TF-VIIA IC50: 13 µM
Human factor Xa
  Factor Xa (cell printed as %, in the IC50 column): 13%

Reference: patent publication US20040171616A9, “Polycyclic aryl and heteroaryl substituted 1,4-quinones useful for selective inhibition of the coagulation cascade” (priority 2000, published 2004)
